# In US20230301300A1, “HERBICIDAL COMPOSITIONS” (SYNGENTA CROP PROTECTION AG, priority 2020, published 2023):
# Experiments:
# Format in all cases: in vivo
# Solanum nigrum (SOLNI) = assay: B1 Post-Emergence Efficacy - Test 1; settings: 1000 g/ha, after 13 days, five point scale
# Summary of the method: (§1)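 Score is a five-point rating of percentage plant damage 13 days after treatment (5=80-100%, 4=60-79%, 3=40-59%, 2=20-39%, 1=0-19%). Plants at 8 days' growth receive a 1000 g/ha spray formulated in acetone/water (50:50) with 0.5% Tween 20, then grow on at 24/16° C. day/night.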
# Lolium perenne (LOLPE) = assay: B1 Post-Emergence Efficacy - Test 1; settings: 1000 g/ha, after 13 days, five point scale
# Summary of the method: as §1
# [1] = system: Ipomoea hederacea (IPOHE); assay: B1 Post-Emergence Efficacy - Test 1; settings: 1000 g/ha, after 13 days, five point scale
# Summary of the method: as §1
# Setaria faberi (SETFA) [2] = assay: B1 Post-Emergence Efficacy - Test 1; settings: 1000 g/ha, after 13 days, five point scale
# Summary of the method: as §1
# [3] = system: Amaranthus retoflexus (AMARE); assay: B1 Post-Emergence Efficacy - Test 1; settings: 1000 g/ha, after 13 days, five point scale
# Summary of the method: as §1
# [4] = system: Echinochloa crus-galli (ECHCG); assay: B1 Post-Emergence Efficacy - Test 1; settings: 1000 g/ha, after 13 days, five point scale
# Summary of the method: as §1
# Bromus tectorum (BROTE) = assay: B2 Post-Emergence Efficacy - Test 2; settings: 15 days after application, 0-100 scale
# Summary of the method: (§2)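 Herbicidal effect was rated visually from 0 (no damage) to 100 (complete kill) fifteen days after treatment. Seedlings had been raised for 12 days under controlled glasshouse conditions and then sprayed with the active ingredient formulated in IF50, diluted in water with 0.2% v/v Genapol X080 adjuvant.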
# [5] = system: Brachiaria plantaginea (BRAPL); assay: B2 Post-Emergence Efficacy - Test 2; settings: 15 days after application, 0=no damage, 100=total kill
# Summary of the method: as §2
# Zea mays (ZEAMX) = assay: B2 Post-Emergence Efficacy - Test 2; settings: 15 days after application; for Herbicidal activity ZEAMX: 0-100 scale; for Herbicidal activity on a 0-100 scale, ZEAMX: 0=no damage, 100=total kill
# Summary of the method: as §2
# Avena fatua (AVEFA) = assay: B2 Post-Emergence Efficacy - Test 2; settings: 15 days after application, 0-100 scale
# Summary of the method: as §2
# [6] = system: Chenopodium album (CHEAL); assay: B2 Post-Emergence Efficacy - Test 2; settings: 15 days after application, 0-100 scale
# Summary of the method: as §2
# Kochia scoparia (KSHSC) = assay: B2 Post-Emergence Efficacy - Test 2; settings: 15 days after application, 0-100 scale
# Summary of the method: as §2
# Setaria faberi (SETFA) [7] = assay: B2 Post-Emergence Efficacy - Test 2; settings: 15 days after application, 0=no damage, 100=total kill
# Summary of the method: as §2
# Stellaria media (STEME) = assay: B2 Post-Emergence Efficacy - Test 2; settings: 15 days after application, 0-100 scale
# Summary of the method: as §2
# Hordeum vulgare (HORVW) = assay: B2 Post-Emergence Efficacy - Test 2; settings: 15 days after application, 0-100 scale
# Summary of the method: as §2
# Brassica napus (BRSNN) = assay: B2 Post-Emergence Efficacy - Test 2; settings: 15 days after application, 0-100 scale
# Summary of the method: as §2
# [8] = system: Amaranthus retroflexus (AMARE); assay: B2 Post-Emergence Efficacy - Test 2; settings: 15 days after application, 0-100 scale
# Summary of the method: as §2
# Eleisine indica (ELEIN) = assay: B2 Post-Emergence Efficacy - Test 2; settings: 15 days after application, 0=no damage, 100=total kill
# Summary of the method: as §2
smiles,measurement,setting,value
"Cc1nn(C)c(=O)c(-c2c(F)ccc(Cl)c2CCc2ccccc2C(F)(F)F)c1O [Compound 1.066, 4-[3-chloro-6-fluoro-2-[2-[2-(trifluoromethyl)phenyl]ethyl]phenyl]-5-hydroxy-2,6-dimethyl-pyridazin-3-one]","percentage damage caused to the plant, SOLNI",Solanum nigrum (SOLNI),5 (5=80-100%)
same,"percentage damage caused to the plant, LOLPE",Lolium perenne (LOLPE),4 (4=60-79%)
same,"percentage damage caused to the plant, IPOHE",[1],5 (5=80-100%)
same,"percentage damage caused to the plant, SETFA",Setaria faberi (SETFA) [2],5 (5=80-100%)
same,"percentage damage caused to the plant, AMARE",[3],5 (5=80-100%)
same,"percentage damage caused to the plant, ECHCG",[4],5 (5=80-100%)
same,Herbicidal activity BROTE,Bromus tectorum (BROTE); 15 g/Ha,0
same,Herbicidal activity BROTE,Bromus tectorum (BROTE); 30 g/Ha,20
same,Herbicidal activity BROTE,Bromus tectorum (BROTE); 60 g/Ha,60
same,Herbicidal activity BROTE,Bromus tectorum (BROTE); 125 g/Ha,70
same,Herbicidal activity BROTE,Bromus tectorum (BROTE); 250 g/Ha,80
same,Herbicidal activity BROTE,Bromus tectorum (BROTE); 500 g/Ha,90
same,"Herbicidal activity on a 0-100 scale, BRAPL",[5]; 15 g/Ha,0
same,"Herbicidal activity on a 0-100 scale, BRAPL",[5]; 30 g/Ha,60
same,"Herbicidal activity on a 0-100 scale, BRAPL",[5]; 125 g/Ha,80
same,"Herbicidal activity on a 0-100 scale, BRAPL",[5]; 250 g/Ha,70
same,"Herbicidal activity on a 0-100 scale, BRAPL",[5]; 500 g/Ha,100
same,Herbicidal activity ZEAMX,Zea mays (ZEAMX); 15 g/Ha,0
same,"Herbicidal activity on a 0-100 scale, ZEAMX",Zea mays (ZEAMX); 15 g/Ha,0
same,Herbicidal activity ZEAMX,Zea mays (ZEAMX); 30 g/Ha,20
same,"Herbicidal activity on a 0-100 scale, ZEAMX",Zea mays (ZEAMX); 30 g/Ha,20
same,Herbicidal activity ZEAMX,Zea mays (ZEAMX); 60 g/Ha,20
same,"Herbicidal activity on a 0-100 scale, ZEAMX",Zea mays (ZEAMX); 60 g/Ha,20
same,Herbicidal activity ZEAMX,Zea mays (ZEAMX); 125 g/Ha,20
same,"Herbicidal activity on a 0-100 scale, ZEAMX",Zea mays (ZEAMX); 125 g/Ha,20
same,Herbicidal activity ZEAMX,Zea mays (ZEAMX); 250 g/Ha,30
same,"Herbicidal activity on a 0-100 scale, ZEAMX",Zea mays (ZEAMX); 250 g/Ha,30
same,Herbicidal activity ZEAMX,Zea mays (ZEAMX); 500 g/Ha,70
same,"Herbicidal activity on a 0-100 scale, ZEAMX",Zea mays (ZEAMX); 500 g/Ha,70
same,Herbicidal activity AVEFA,Avena fatua (AVEFA); 15 g/Ha,0
same,Herbicidal activity AVEFA,Avena fatua (AVEFA); 30 g/Ha,20
same,Herbicidal activity AVEFA,Avena fatua (AVEFA); 60 g/Ha,40
same,Herbicidal activity AVEFA,Avena fatua (AVEFA); 125 g/Ha,90
same,Herbicidal activity AVEFA,Avena fatua (AVEFA); 250 g/Ha,90
same,Herbicidal activity AVEFA,Avena fatua (AVEFA); 500 g/Ha,90
same,Herbicidal activity CHEAL,[6]; 30 g/Ha,90
same,Herbicidal activity CHEAL,[6]; 60 g/Ha,90
same,Herbicidal activity CHEAL,[6]; 125 g/Ha,90
same,Herbicidal activity CHEAL,[6]; 250 g/Ha,100
same,Herbicidal activity CHEAL,[6]; 500 g/Ha,100
same,Herbicidal activity KCHSC,Kochia scoparia (KSHSC); 15 g/Ha,0
same,Herbicidal activity KCHSC,Kochia scoparia (KSHSC); 30 g/Ha,0
same,Herbicidal activity KCHSC,Kochia scoparia (KSHSC); 60 g/Ha,0
same,Herbicidal activity KCHSC,Kochia scoparia (KSHSC); 125 g/Ha,10
same,Herbicidal activity KCHSC,Kochia scoparia (KSHSC); 250 g/Ha,20
same,Herbicidal activity KCHSC,Kochia scoparia (KSHSC); 500 g/Ha,20
same,"Herbicidal activity on a 0-100 scale, SETFA",Setaria faberi (SETFA) [7]; 15 g/Ha,0
same,"Herbicidal activity on a 0-100 scale, SETFA",Setaria faberi (SETFA) [7]; 30 g/Ha,70
same,"Herbicidal activity on a 0-100 scale, SETFA",Setaria faberi (SETFA) [7]; 60 g/Ha,70
same,"Herbicidal activity on a 0-100 scale, SETFA",Setaria faberi (SETFA) [7]; 125 g/Ha,80
same,"Herbicidal activity on a 0-100 scale, SETFA",Setaria faberi (SETFA) [7]; 250 g/Ha,90
same,"Herbicidal activity on a 0-100 scale, SETFA",Setaria faberi (SETFA) [7]; 500 g/Ha,90
same,Herbicidal activity STEME,Stellaria media (STEME); 15 g/Ha,80
same,Herbicidal activity STEME,Stellaria media (STEME); 30 g/Ha,60
same,Herbicidal activity STEME,Stellaria media (STEME); 60 g/Ha,90
same,Herbicidal activity STEME,Stellaria media (STEME); 125 g/Ha,90
same,Herbicidal activity STEME,Stellaria media (STEME); 250 g/Ha,90
same,Herbicidal activity STEME,Stellaria media (STEME); 500 g/Ha,100
same,Herbicidal activity HORVW,Hordeum vulgare (HORVW); 15 g/Ha,0
same,Herbicidal activity HORVW,Hordeum vulgare (HORVW); 30 g/Ha,10
same,Herbicidal activity HORVW,Hordeum vulgare (HORVW); 60 g/Ha,20
same,Herbicidal activity HORVW,Hordeum vulgare (HORVW); 125 g/Ha,70
same,Herbicidal activity HORVW,Hordeum vulgare (HORVW); 250 g/Ha,80
same,Herbicidal activity HORVW,Hordeum vulgare (HORVW); 500 g/Ha,90
same,Herbicidal activity BRSNN,Brassica napus (BRSNN); 15 g/Ha,90
same,Herbicidal activity BRSNN,Brassica napus (BRSNN); 30 g/Ha,90
same,Herbicidal activity BRSNN,Brassica napus (BRSNN); 60 g/Ha,90
same,Herbicidal activity BRSNN,Brassica napus (BRSNN); 125 g/Ha,90
same,Herbicidal activity BRSNN,Brassica napus (BRSNN); 250 g/Ha,90
same,Herbicidal activity BRSNN,Brassica napus (BRSNN); 500 g/Ha,90
same,Herbicidal activity AMARE,[8]; 15 g/Ha,90
same,Herbicidal activity AMARE,[8]; 30 g/Ha,90
same,Herbicidal activity AMARE,[8]; 60 g/Ha,90
same,Herbicidal activity AMARE,[8]; 125 g/Ha,100
same,Herbicidal activity AMARE,[8]; 250 g/Ha,100
same,Herbicidal activity AMARE,[8]; 500 g/Ha,100
same,"Herbicidal activity on a 0-100 scale, ELEIN",Eleisine indica (ELEIN); 15 g/Ha,0
same,"Herbicidal activity on a 0-100 scale, ELEIN",Eleisine indica (ELEIN); 30 g/Ha,20
same,"Herbicidal activity on a 0-100 scale, ELEIN",Eleisine indica (ELEIN); 60 g/Ha,70
same,"Herbicidal activity on a 0-100 scale, ELEIN",Eleisine indica (ELEIN); 125 g/Ha,70
same,"Herbicidal activity on a 0-100 scale, ELEIN",Eleisine indica (ELEIN); 250 g/Ha,70
same,"Herbicidal activity on a 0-100 scale, ELEIN",Eleisine indica (ELEIN); 500 g/Ha,80
